Measurements reported in PubChem BioAssay AID248 (DTP/NCI, 2004).
Values joined by “and” are separate entries in the source; they are usually repeats but may differ in a detail not shown here. Equal entries are not always repeated. Toxic doses and inconclusive results are not listed. No stated cut-off is given here; in the data, active means T/C of 150% or more; inactive means T/C below 125%.

System: L1210 leukemia ip in BDF1 mice, survival T/C
Experiment: NCI In Vivo Anticancer Drug Screen. Data for tumor model L1210 Leukemia (intraperitoneal) in B6D2F1 (BDF1) mice
Conditions: endpoint: mean survival time, higher = longer survival
Outline: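 Each compound was tested against a transplantable tumor grown in mice. The endpoint was survival, with treated animals benchmarked against vehicle controls as a simple ratio.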

[1] = dose: 100.0 mg/kg/injection, schedule: Q04DX003 (ip), vehicle: Klucel (hydroxypropylcellulose) (HPC)
[2] = dose: 200.0 mg/kg/injection, schedule: Q04DX003 (ip), vehicle: Klucel (hydroxypropylcellulose) (HPC)
[3] = dose: 400.0 mg/kg/injection, schedule: Q04DX003 (ip), vehicle: Klucel (hydroxypropylcellulose) (HPC)
[4] = dose: 100.0 mg/kg/injection, schedule: Q01DX001 (ip), vehicle: saline
[5] = dose: 200.0 mg/kg/injection, schedule: Q01DX001 (ip), vehicle: saline
[6] = dose: 400.0 mg/kg/injection, schedule: Q01DX001 (ip), vehicle: saline
[7] = dose: 100.0 mg/kg/injection, schedule: Q04DX003 (ip), vehicle: saline with Tween-80
[8] = dose: 200.0 mg/kg/injection, schedule: Q04DX003 (ip), vehicle: saline with Tween-80
[9] = dose: 400.0 mg/kg/injection, schedule: Q04DX003 (ip), vehicle: saline with Tween-80
[10] = dose: 100.0 mg/kg/injection, schedule: Q01DX001 (ip), vehicle: saline with Tween-80
[11] = dose: 100.0 mg/kg/injection, schedule: Q01DX009 (ip), vehicle: saline with Tween-80
[12] = dose: 200.0 mg/kg/injection, schedule: Q01DX009 (ip), vehicle: saline with Tween-80
[13] = dose: 100.0 mg/kg/injection, schedule: Q01DX009 (ip), vehicle: Klucel (hydroxypropylcellulose) (HPC)
[14] = dose: 200.0 mg/kg/injection, schedule: Q01DX009 (ip), vehicle: Klucel (hydroxypropylcellulose) (HPC)
[15] = dose: 2.5 mg/kg/injection, schedule: Q01DX009 (ip), vehicle: saline

Measured: T/C

COc1ccc(C(=O)C(C)C(O)(C(F)(F)F)C(F)(F)F)cc1 (stereo not drawn)
inactive: dose: 75.0 mg/kg/injection, schedule: Q01DX009 (ip), vehicle: Klucel (hydroxypropylcellulose) (HPC) 97 % of control | [1] 111 % of control | dose: 150.0 mg/kg/injection, schedule: Q01DX009 (ip), vehicle: Klucel (hydroxypropylcellulose) (HPC) 101 % of control | [2] 100 % of control | dose: 300.0 mg/kg/injection, schedule: Q01DX009 (ip), vehicle: Klucel (hydroxypropylcellulose) (HPC) 92 % of control | [3] 100 % of control

O=C(CCCc1ccc(N(CCCl)CCCl)cc1)OCc1ccccc1
inactive: dose: 100.0 mg/kg/injection, schedule: Q04DX002 (ip), vehicle: saline 121 % of control | dose: 200.0 mg/kg/injection, schedule: Q04DX002 (ip), vehicle: saline 108 % of control | dose: 400.0 mg/kg/injection, schedule: Q04DX002 (ip), vehicle: saline 121 % of control

C=CCNC(=O)SCCC(=O)O
inactive: [4] 93 % of control | [5] 100 % of control | [6] 102 % of control

CC(O)(c1cccc(Cl)c1)C(c1ccccc1)c1ccccn1 (stereo not drawn)
inactive: [7] 101 % of control and 100 % of control | [8] 92 % of control and 106 % of control | [9] 101 % of control and 106 % of control

Cc1ccc2c(c1)Sc1ccc3ccccc3c1N2
inactive: dose: 100.0 mg/kg/injection, schedule: Q01DX009 (ip), vehicle: saline sonified 104 % of control | [1] 97 % of control | dose: 200.0 mg/kg/injection, schedule: Q01DX009 (ip), vehicle: saline sonified 88 % of control | [2] 89 % of control | dose: 400.0 mg/kg/injection, schedule: Q01DX009 (ip), vehicle: saline sonified 100 % of control | [3] 92 % of control

O=C1c2ccccc2C(=O)c2c1cccc2S(=O)(=O)O
inactive: dose: 25.0 mg/kg/injection, schedule: Q01DX001 (ip), vehicle: saline with Tween-80 105 % of control | dose: 50.0 mg/kg/injection, schedule: Q01DX001 (ip), vehicle: saline with Tween-80 103 % of control | [10] 105 % of control

COc1ccc(OC)c(C(Nc2ccc3cn[nH]c3c2)P(=O)(c2ccccc2)c2ccccc2)c1 (stereo not drawn)
inactive: [10] 93 % of control | [11] 95 % of control | dose: 100.0 mg/kg/injection, schedule: Q04DX002 (ip), vehicle: saline with Tween-80 103 % of control and 104 % of control | [7] 96 % of control | dose: 200.0 mg/kg/injection, schedule: Q01DX001 (ip), vehicle: saline with Tween-80 103 % of control | [12] 95 % of control | dose: 200.0 mg/kg/injection, schedule: Q04DX002 (ip), vehicle: saline with Tween-80 95 % of control and 90 % of control | [8] 95 % of control | dose: 400.0 mg/kg/injection, schedule: Q01DX001 (ip), vehicle: saline with Tween-80 92 % of control | dose: 400.0 mg/kg/injection, schedule: Q01DX009 (ip), vehicle: saline with Tween-80 97 % of control | dose: 400.0 mg/kg/injection, schedule: Q04DX002 (ip), vehicle: saline with Tween-80 93 % of control | [9] 92 % of control

CCOC(=O)NCc1ccccc1
inactive: [13] 101 % of control | [1] 98 % of control | [14] 106 % of control | [2] 95 % of control | dose: 400.0 mg/kg/injection, schedule: Q01DX009 (ip), vehicle: Klucel (hydroxypropylcellulose) (HPC) 95 % of control | [3] 101 % of control

Cc1ccc([N+](=O)[O-])c(O)c1[N+](=O)[O-]
inactive: [13] 104 % of control | [1] 102 % of control | [14] 93 % of control | [2] 89 % of control | [3] 102 % of control

COc1ccc([N+](=O)[O-])c2conc12
inactive: dose: 50.0 mg/kg/injection, schedule: Q01DX009 (ip), vehicle: saline with Tween-80 95 % of control | [11] 98 % of control | [12] 103 % of control

CS(=O)(=O)OCCF
inactive: dose: 0.25 mg/kg/injection, schedule: Q01DX009 (ip), vehicle: saline 101 % of control | dose: 0.5 mg/kg/injection, schedule: Q01DX009 (ip), vehicle: saline 103 % of control | dose: 1.0 mg/kg/injection, schedule: Q01DX009 (ip), vehicle: saline 103 % of control | dose: 2.5 mg/kg/injection, schedule: Q01DX009 (ip), vehicle: carboxymethylcellulose (CMC) 103 % of control | [15] 103 % of control | dose: 5.0 mg/kg/injection, schedule: Q01DX009 (ip), vehicle: carboxymethylcellulose (CMC) 108 % of control | dose: 6.25 mg/kg/injection, schedule: Q04DX003 (ip), vehicle: saline with Tween-80 114 % of control | dose: 9.0 mg/kg/injection, schedule: Q01DX009 (ip), vehicle: saline 92 % of control | dose: 10.5 mg/kg/injection, schedule: Q01DX015 (ip), vehicle: saline 97 % of control | dose: 10.8 mg/kg/injection, schedule: Q01DX015 (ip), vehicle: saline 100 % of control | dose: 12.5 mg/kg/injection, schedule: Q01DX001 (ip), vehicle: acetone 103 % of control | dose: 12.5 mg/kg/injection, schedule: Q01DX009 (ip), vehicle: acetone 106 % of control | dose: 18.0 mg/kg/injection, schedule: Q01DX015 (ip), vehicle: saline 114 % of control | dose: 20.0 mg/kg/injection, schedule: Q01DX009 (ip), vehicle: carboxymethylcellulose (CMC) 87 % of control | dose: 25.0 mg/kg/injection, schedule: Q01DX001 (ip), vehicle: acetone 116 % of control | dose: 25.0 mg/kg/injection, schedule: Q01DX001 (ip), vehicle: saline 94 % of control | dose: 30.0 mg/kg/injection, schedule: Q01DX001 (ip), vehicle: saline 98 % of control | dose: 30.0 mg/kg/injection, schedule: Q01DX015 (ip), vehicle: saline 113 % of control and 91 % of control | dose: 44.0 mg/kg/injection, schedule: Q01DX001 (ip), vehicle: saline 106 % of control and 122 % of control | dose: 50.0 mg/kg/injection, schedule: Q01DX001 (ip), vehicle: acetone 103 % of control | dose: 50.0 mg/kg/injection, schedule: Q01DX001 (ip), vehicle: carboxymethylcellulose (CMC) 117 % of control | dose: 50.0 mg/kg/injection, schedule: Q01DX001 (ip), vehicle: saline 102 % of control and 109 % of control | dose: 200.0 mg/kg/injection, schedule: Q01DX001 (ip), vehicle: carboxymethylcellulose (CMC) 97 % of control | [6] 87 % of control

Cc1ccc(C)c(NC(=O)Nc2cccc3ccccc23)c1
inactive: dose: 100.0 mg/kg/injection, schedule: Q01DX009 (ip), vehicle: gum acacia 96 % of control | [1] 89 % of control | dose: 200.0 mg/kg/injection, schedule: Q01DX009 (ip), vehicle: gum acacia 100 % of control | [2] 93 % of control | dose: 400.0 mg/kg/injection, schedule: Q01DX009 (ip), vehicle: gum acacia 91 % of control | [3] 98 % of control

O=C(Oc1c(Cl)c(Cl)c(Cl)c(Cl)c1Cl)c1cc(Cl)cc(Cl)c1Br
inactive: dose: 25.0 mg/kg/injection, schedule: Q04DX003 (ip), vehicle: saline with Tween-80 105 % of control | dose: 50.0 mg/kg/injection, schedule: Q04DX003 (ip), vehicle: saline with Tween-80 102 % of control | [7] 97 % of control and 91 % of control

COC(=O)C(Br)(C(=O)OC)C(c1ccccc1)c1ccccc1
inactive: dose: 100.0 mg/kg/injection, schedule: Q04DX002 (ip), vehicle: other 90 % of control | dose: 200.0 mg/kg/injection, schedule: Q04DX002 (ip), vehicle: other 86 % of control | dose: 400.0 mg/kg/injection, schedule: Q04DX002 (ip), vehicle: other 93 % of control

CN(C)CCOC(=O)c1cc(CCBr)cc(CCBr)c1
inactive: [15] 92 % of control | dose: 5.0 mg/kg/injection, schedule: Q01DX009 (ip), vehicle: saline 97 % of control | dose: 10.0 mg/kg/injection, schedule: Q01DX009 (ip), vehicle: Klucel (hydroxypropylcellulose) (HPC) 95 % of control | dose: 10.0 mg/kg/injection, schedule: Q01DX009 (ip), vehicle: saline 94 % of control

NNP(=O)(c1ccccc1)c1ccccc1
inactive: [4] 108 % of control | [5] 102 % of control | [6] 102 % of control
